Legend:
[1] = Blood serum theophylline, fluorescence polarization assay (Example 1); type: in vivo, human
Experimental: Patients returned for reevaluation after two to four months of treatment. Measurements of blood serum theophylline were measured by a fluorescence polarization assay (Abbott, Chicago, IL). At this time, subjective changes in smell function were measured independently (compared to patient's memory of previous normal smell function monitored by use of the patients' daily measurements) using the scale from −100-0-+100 previously described (vs). After independently recording their subjective responses, smell function was measured for all four odors with DT, RT, ME and H determined without recourse to prior measurements.

cGMP = test: Parotid saliva cGMP, 96 plate spectrophotometric assay; type: in vivo, human; conditions: for saliva cGMP over initial values: improved patients; for change of saliva cGMP: unimproved patients
Experimental: Parotid saliva was collected from each patient by application of a Lashley cup over Stensen's duct with lingual stimulation by placement of concentrated lemon juice. Saliva was collected in plastic tubes and stored at −20° C. until assayed. cAMP and cGMP were measured in saliva by a sensitive 96 plate spectrophotometric assay (R&D Systems, Minneapolis, MN).
All patients were placed in a fixed design open label clinical trial with treatment with oral theophylline. Treatment consisted of fixed treatment periods of two-eight months with sequential doses of the drug at 200 mg, 400 mg and 600 mg. At termination of each of these intervals, patients returned to study site for reevaluation. At the end of each interval subjective responses to treatment were measured with a modification of the 0-100 scale previously used (vs). Subjective responses to treatment were graded on a sliding scale from −100-0-+100 with patients recording improvement (+0-+100), no improvement (0) or worsening (0—-100) of their overall smell function. If overall smell function improved ≥5% they were considered to improve clinically (1). If smell function improved <5% they were considered not to improve (1). At the end of each interval subjective measurements of smell function, measurements of DT, RT, ME and H and measurements of parotid saliva for levels of cAMP and cGMP were obtained. In addition, blood plasma was obtained by venipuncture, placed in ice into zinc free tubes which contained 100 mg zinc free heparin, centrifuged at 3000 rpm for 10-20 min, the plasma transferred to plastic PCR tubes and stored at −20° C. until assayed. Theophylline was assayed by a fluorescence polarization assay (Abbott, Chicago, IL), as previously described.
Data for the cyclic nucleotides from these 31 patients was not analyzed until the entire study of the 312 patients in Example 1 was assembled and analyzed in its entirety. After completion of these analyses, all data for parotid saliva cAMP and cGMP from all patients in whom salivary cAMP and cGMP were obtained were assembled. Levels of salivary cyclic nucleotides varied widely. Initially, without external criteria, there was no way to understand these disparate data. […] In a similar manner, measurements of each patient's plasma theophylline level at each dosage of theophylline (at 200 mg, 400 mg, 600 mg of theophylline) were catagorized. The two patient groups were also analyzed post hoc with respect to type of smell loss and etiology of smell loss.

SMILES: Cn1c(=O)c2[nH]cnc2n(C)c1=O [theophylline]
- mean serum theophylline ([1]; oral 200 mg daily): 4.0±0.2
- mean serum theophylline ([1]; oral 400 mg daily): 7.4±0.4
- saliva cGMP over initial values (cGMP; oral 400 mg): 275%
- change of saliva cGMP (cGMP; oral 400 mg): little change
- saliva cGMP over initial values (cGMP; oral 600 mg): 338%
- change of saliva cGMP (cGMP; oral 600 mg): no increase

Source: patent US12329753B2, “Phosphodiesterase inhibitor treatment” (Cyrano Therapeutics, Inc., priority 2008, dated 2025)
